Where no end group is shown, it is not given here.
Experiments:
EAE = details: Shijie et al. 2009; cited from earlier work
EAE in rats = details: direct application (Smith et al.); cited from earlier work
inflammation = details: EAE (Pitt et al.); cited from earlier work
activated T-cells = details: Pitt et al.; cited from earlier work
EAE mice = EAE mice (Fazio et al. 2008); cited from earlier work
GAPDH = target: T1, GAPDH (Rattus norvegicus, UniProt P04797); assay: Pull-down affinity assay of GluR2-GAPDH interaction; assay type: binding; details: solubilized rat hippocampal tissue, approximately 100 μg GST-fusion protein
T1 construct: Rat hippocampus was homogenized in 50 mM Tris-HCl (pH 7.5); from tissue; host or cells: rat hippocampus homogenate
Description: Desired DNA sequences of the GluR2 N-terminus were obtained by polymerase chain reaction. The DNA sequences were digested with BamHI and Xhol enzymes to create sticky ends and subsequently incorporated into GST-plasmids (pGEX4T3) through DNA ligation. Following ligation, transformation with DH5a competent cells was performed to amplify the plasmid content. Subsequently, the plasmids were extracted and subjected to sequence confirmation. Having the desired DNA sequences confirmed, the GST-fusion proteins were expressed through the transformation with another strain of competent cells (i.e. BL21). The GST-fusion proteins were then precipitated and purified through glutathione resin (from Genescript).
Rat hippocampus was homogenized in 50 mM Tris-HCl (pH 7.5), 150 mM NaCl, 1% NP-40, 0.5% sodium deoxycholate, 1 mM EDTA, 10% Triton X-100, 1 mM PMSF and protease inhibitor cocktail (Sigma, 5 microl per 100 mg tissue). The hippocampal tissue was further solubilized with 1% Triton X-100 and then centrifuged at 14,000 rpm at 4° C. for 15 mins The solubilized hippocampal tissue (approximately 1 milligram of protein) was incubated with glutathione resin (Genescript) and indicated GST-fusion proteins (approximately 100 μg) at 4° C. overnight and followed by an hour of incubation at room temperature. After the incubation, the samples were washed 4-6 times with 1 mL PBS contained 0.1% Triton X-100. […]

neurofilament-H = assay: Neurofilament-H immunostaining, axonal density in EAE mouse spinal cord; assay type: in vivo; details: EAE mice spinal cord; compared to sham
Description: (§1) Frozen coronal sections of EAE mice spinal cord (10 μm) thickness were cut using a microtome cryostat system (Bright Instruments 5030). All sections were initially incubated in blocking solution (0.1 m PBS, 1% Triton X-100, 0.5% Tween 20, 2% skim milk) or serum-free protein block (Dako Cytomation) for 1 h at room temperature to reduce nonspecific background and then incubated with primary and secondary antibodies overnight at 4° C. The following primary antibodies were used: anti-Iba1 (1:200; Dako), anti-Neurofilament H (1:200), anti-CC1, anti-CNPase (1:200), and anti-NeuN (1:200). Fluorescent secondary antibodies conjugated to Alexa 488 or Rhodamine Red-X (1:200; Invitrogen) or Cy3 (1:100; Jackson ImmunoResearch Laboratories) were used for detection of primary antibodies.

myelin = assay: Luxol Fast Blue staining of myelin in EAE mouse spinal cord; assay type: in vivo; details: EAE mice spinal cord; compared to sham
Description: At day 30, mice were sacrificed by overdose anesthesia, and the spinal cord was dissected for co-immunoprecipitation analysis. For analysis of central nervous system infiltrates, brain and spinal cord tissues were collected and mononuclear cells were prepared by Percoll gradient centrifugation. For immunological analysis, splenocytes cells were dissected and cultured in vitro. For histological analysis, the same tissue samples were immediately fixed in 4% (wt/vol) paraformaldehyde. Frozen sections of spinal cord were stained with Luxol fast blue for analysis of […].

Iba1+ cells = assay: Iba1 immunolabeling of macrophages/microglia in EAE mouse spinal cord; assay type: in vivo; details: EAE mice; compared to sham
Description: as §1
As MS is closely associated with inflammation and autoimmunity, the TAT-G-Gpep peptide was tested to determine if it affects microglial/macrophage recruitment.

oligodendrocytes = assay: CNPase- and CC1-labeled oligodendrocytes in EAE mouse spinal cord; assay type: in vivo; details: EAE mice, dorsal regions of spinal cord; compared to sham
Description: as §1

GluR2-GAPDH interaction = details: previously shown (PCT/CA2007/001539); cited from earlier work
cytokines = assay: Bioplex, cytokine profiles in cultured spleenocytes re-stimulated with MOG35-55; assay type: in vivo, mice; details: vs the other two groups
Description: Cytokine measurement was performed by Bioplex Protein Array (Bio-Plex Pro™ Mouse Cytokine 23-plex Assay) from Bio-Rad as per manufacturer's instruction. EAE mice serum, culture supernatant of spleenocytes in different treatment groups and supernatant of brain infiltrated leukocyte culture were used for bioplex protein array in duplicates. The standard curves were optimized automatically by the software (Bioplex manager) and verified manually. The Bioplex manager software was used to calculate cytokine concentrations. Data is expressed as Mean±SEM.

hippocampal neurons = details: animal models of ischemic stroke; previously shown (PCT/CA2007/001539); cited from earlier work

T1 sequence (P04797 whole entry, the tested form may be a part): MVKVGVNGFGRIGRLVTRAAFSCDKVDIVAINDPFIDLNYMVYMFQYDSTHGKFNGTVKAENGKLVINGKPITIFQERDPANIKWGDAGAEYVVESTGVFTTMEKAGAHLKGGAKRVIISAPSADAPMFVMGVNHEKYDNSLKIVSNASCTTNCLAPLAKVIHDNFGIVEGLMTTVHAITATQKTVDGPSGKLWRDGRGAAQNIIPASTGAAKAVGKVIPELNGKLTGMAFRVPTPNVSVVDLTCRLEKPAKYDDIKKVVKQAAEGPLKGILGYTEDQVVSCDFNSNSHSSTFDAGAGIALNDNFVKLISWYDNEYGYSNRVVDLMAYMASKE
GluR2-GAPDH interaction, sequence (P04406 whole entry, the tested form may be a part): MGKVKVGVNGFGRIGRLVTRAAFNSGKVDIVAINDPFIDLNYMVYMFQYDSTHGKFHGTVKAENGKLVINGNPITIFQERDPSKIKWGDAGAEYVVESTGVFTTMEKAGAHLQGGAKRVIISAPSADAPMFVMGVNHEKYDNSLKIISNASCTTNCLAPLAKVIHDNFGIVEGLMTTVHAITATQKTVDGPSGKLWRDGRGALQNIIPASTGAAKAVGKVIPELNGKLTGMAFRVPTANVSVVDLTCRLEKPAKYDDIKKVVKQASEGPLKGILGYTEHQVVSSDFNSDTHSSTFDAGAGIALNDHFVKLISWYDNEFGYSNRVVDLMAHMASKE

Molecule: [N-]=[N+]=CC(=O)CC[C@H](N)C(=O)O [DON, 6-diazo-5-oxo-L-norleucine]
- neurological effects of EAE (EAE): attenuated

Molecule: O=c1[nH]c2cc(C(F)(F)F)c(N3CCOCC3)cc2n(CP(=O)(O)O)c1=O [MPQX]
- acute and chronic neurological effects of EAE (EAE in rats): reduces the acute and chronic neurological effects of EAE

Molecule: NS(=O)(=O)c1cccc2c1c([N+](=O)[O-])cc1nc(O)c(O)nc12 [NBQX]
- amount of inflammation (inflammation): did not reduce
- acute and chronic neurological effects of EAE (EAE in rats): reduces the acute and chronic neurological effects of EAE
- in vitro proliferation of activated T-cells (activated T-cells): did not reduce

Molecule: O=C(Nc1nc(C(F)(F)F)co1)C1c2ccccc2Oc2ccccc21 [RO0711401]
- motor coordination (EAE mice): improves motor coordination

Molecule: CC1(C)[C@@H](OC(=O)CCC(=O)O)CC[C@]2(C)[C@H]3C(=O)C=C4[C@@H]5C[C@@](C)(C(=O)O)CC[C@]5(C)CC[C@@]4(C)[C@]3(C)CC[C@@H]12 [carbenoxolone]
- neurological effects of EAE (EAE): attenuated

Molecule: GST alone: glutathione S-transferase alone, negative control
- precipitation (pull down) of GAPDH (GAPDH): neither the GST alone nor the GST-fusion protein containing fragment 1 (Tyr142-Leu161 (SEQ ID NO:7)) sufficed to “pull down” GAPDH

Molecule: GST-Fragment 2: GST fusion protein of fragment 2, Asp153-Lys172 of GluR2 N-terminus, DSDRGLSTLQAVLDSAAEKK (SEQ ID NO:5) (also: GST fusion protein)
- precipitation (pull down) of GAPDH (GAPDH): able to precipitate GAPDH

Molecule: YGRKKRRQRRRAFDLSQYDLKWQVDYLKYDYGTASELRASA (G-Gpep-sc or G-Gpep-scrambled) [TAT-G-Gpep-sc, scrambled G-Gpep control peptide fused to TAT domain]
- area occupied by neurofilament-H (neurofilament-H): significantly lower
- demyelination (myelin in the ventral funiculus) (myelin): Significant demylenation
- number of Iba1+ cells in the dorsal and ventral horns (Iba1+ cells): significantly more macrophages/microglia
- number of CNPase- and CC1-labeled oligodendrocytes (oligodendrocytes): significantly lower

Molecule: YYQWDKFAYLYDSDRGLSTLQAVLDSAAEKK (GluR2 NT1-3-2) [G-Gpep, interfering peptide, GluR2 NT1-3-2 (Y142-K172)]
- disruption of GluR2-GAPDH interactions (GluR2-GAPDH interaction): capable of disrupting GluR2-GAPDH interactions
- immunoreactivity of spleenocytes (most cytokines) (cytokines): significantly suppressed
- protection of neurons from ischemia-induced cell death (hippocampal neurons): protecting neurons from ischemia-induced cell death
